In patent publication US9132130B2, “Purine derivative and antitumor agent using same” (ZENYAKU KOGYO KABUSHIKI KAISHA, priority 2009, dated 2015):

Columns and labels:
Assay type in all cases: cell-based
[1] = tested on: P388 cells (mouse leukemia cells); assay: in vitro antitumor activity test, P388 cells, XTT colorimetry; conditions: cultured 72 hours
Method: P388 cells (mouse leukemia cells) passaged in the abdominal cavity of DBA/2 mice were extracted with ascitic fluid, and cultured in a RPMI 1640 medium (added with 10% fetal bovine serum, 25 mM HEPES, 0.1 mg/ml kanamycin and 5 μM 2-hydroxyethyldisulfide) at 37° C. in 5% carbon dioxide gas. After culturing for 16 hours, floating P388 cells were made into a single cell suspension of 4×10^4 cells per 1 ml using the same RPMI 1640 medium as given above. The test substances were dissolved in DMSO, then diluted in a RPMI 1640 medium (added with 10% fetal bovine serum, 25 mM HEPES and 0.1 mg/ml kanamycin) and prepared so that the concentrations were 2.0×10^−9 to 2.0×10^−4 M.
0.1 ml of the cell suspension was placed into each well of 96-well microplates, then 0.1 ml of the sample solutions were added, and cultured for 72 hours at 37° C. in 5% carbon dioxide gas.
(§1) Afterwards, the level of growth inhibition at various sample concentrations was obtained using XTT colorimetry, and concentrations at which growth was inhibited by 50% (GI50 values [μM]) were calculated.

[2] = tested on: PC-3 cells (human prostate cancer cells); assay: in vitro antitumor activity test, PC-3 cells, XTT colorimetry; conditions: PC-3 human prostate cancer cells, cultured 72 hours
Method: (§2) WiDr cells (human colon cancer cells) subcultured in a culture medium composed of a MEM medium added with 10% fetal bovine serum, 25 mM HEPES and 0.1 mg/ml kanamycin under the conditions of 37° C. and 5% carbon dioxide gas were made into single floating cells by treating with trypsin/EDTA, and a single cell suspension of 3×10^4 cells per 1 ml was prepared using the MEM medium (added with 10% fetal bovine serum, 25 mM HEPES and 0.1 mg/ml kanamycin). After dissolving the test compounds in DMSO, they were diluted in a RPMI 1640 medium (added with 10% fetal bovine serum, 25 mM HEPES and 0.1 mg/ml kanamycin) and prepared so that the concentrations were 2.0×10^−9 to 2.0×10^−4 M.
(§3) 0.1 ml of the cell suspension was placed into each well of 96-well microplates, cultured for 24 hours to allow the cells to adhere to the microplates, then 0.1 ml of the sample solutions were added, and cultured for 72 hours at 37° C. in 5% carbon dioxide gas.
as §1
(§4) In addition, cells other than WiDr cells that were used, and the condition for preparing each single cell suspension were as follows.
PC-3 cells (human prostate cancer cells): 2×10^4 cells/ml

[3] = tested on: B16F10 cells (mouse melanoma [malignant melanoma] cells); assay: in vitro antitumor activity test, B16F10 cells, XTT colorimetry; conditions: B16-F10, cultured 72 hours
Method: as §2, §3, §1, §4
B16F10 cells (mouse melanoma [malignant melanoma] cells): 1×10^4 cells/ml

[4] = tested on: WiDr cells (human colon cancer cells); assay: in vitro antitumor activity test, WiDr cells, XTT colorimetry; conditions: cultured 72 hours
Method: as §2, §3, §1

[5] = tested on: A549 cells (human lung cancer cells); assay: in vitro antitumor activity test, A549 cells, XTT colorimetry; conditions: cultured 72 hours
Method: as §2, §3, §1, §4
A549 cells (human lung cancer cells): 2×10^4 cells/ml

Row | SMILES | GI50 [1] | GI50 [2] | GI50 [3] | GI50 [4] | GI50 [5]
1 | CCn1cnc2c(N3C=COCC3)nc(SCc3ccc(OC)c(N)c3)nc21 [Compound 151, 2-(3-amino-4-methoxybenzylsulfanyl)-6-(2,3-dihydro-[1,4]oxadin-4-yl)-9-ethyl-9H-purine] | 570 nM | 1440 nM | 1470 nM | 3400 nM | 700 nM
2 | CCOc1ccc(CSc2nc(N3CCOCC3)c3nc(CC)n(C)c3n2)cc1F [Compound 116, 2-(4-ethoxy-3-fluorobenzylsulfanyl)-8-ethyl-9-methyl-6-morpholino-9H-purine] | 290 nM | 320 nM | 440 nM | 330 nM | 450 nM
3 | COc1ccc(CSc2nc(N(C)C)c3ncn(C)c3n2)cc1N [Compound 19, 2-(3-amino-4-methoxybenzylsulfanyl)-6-dimethylamino-9-methyl-9H-purine] | 320 nM | 400 nM | 450 nM | 4040 nM | 450 nM
4 | COc1ccc(CSc2nc(N(C)C)c3ncn(C)c3n2)cc1F [Compound 86, 6-dimethylamino-2-(3-fluoro-4-methoxybenzylsulfanyl)-9-methyl-9H-purine] | 30 nM | 50 nM | 60 nM | 40 nM | 50 nM
5 | CCOc1ccc(CSc2nc(N3CCOCC3)c3nc(CC)n(CC)c3n2)cc1F [Compound 117, 8,9-diethyl-2-(4-ethoxy-3-fluorobenzylsulfanyl)-6-morpholino-9H-purine] | 300 nM | 310 nM | 370 nM | 290 nM | 430 nM
6 | COc1ccc(CSc2nc(-c3ccsc3)c3ncn(C)c3n2)cc1 [Compound 168, 2-(4-methoxybenzylsulfanyl)-9-methyl-6-(3-thienyl)-9H-purine] | 140 nM | 320 nM | 210 nM | 140 nM | 220 nM
7 | CCc1nc2c(N(C)C)nc(SCc3ccc(OC)c(C#N)c3)nc2n1C [Compound 69, 2-(3-cyano-4-methoxybenzylsulfanyl)-6-dimethylamino-8-ethyl-9-methyl-9H-purine] | 110 nM | 120 nM | 200 nM | 150 nM | 150 nM
8 | CCc1nc2c(N3CCN(N=O)CC3)nc(SCc3ccc(OC)c(F)c3)nc2n1C [Compound 20, 8-ethyl-2-(3-fluoro-4-methoxybenzylsulfanyl)-9-methyl-6-(4-nitrosopiperazin-1-yl)-9H-purine] | 80 nM | 40 nM | 320 nM | 80 nM | 160 nM
9 | COc1ccc(CSc2nc(N3C=COCC3)c3ncn(C)c3n2)cc1N [Compound 150, 2-(3-amino-4-methoxybenzylsulfanyl)-6-(2,3,-dihydro-[1,4]oxadin-4-yl)-9-methyl-9H-purine] | 110 nM | 150 nM | 300 nM | 780 nM | 150 nM
10 | COc1ccc(CSc2nc(N3CCOCC3)c3ncn(C)c3n2)cc1F [Compound 83, 2-(3-fluoro-4-methoxybenzylsulfanyl)-9-methyl-6-morpholino-9H-purine] | 90 nM | 180 nM | 180 nM | 140 nM | 150 nM
11 | CCN(CC)c1nc(SCc2ccc(OC)cc2)nc2c1ncn2C [Compound 25, 6-diethylamino-2-(4-methoxybenzylsulfanyl)-9-methyl-9H-purine] | 680 nM | 1130 nM | 1380 nM | 820 nM | 950 nM

Continued by falling GI50 [1], values first:

Row | GI50 [1] | GI50 [2] | GI50 [3] | GI50 [4] | GI50 [5] | SMILES
12 | 960 nM | 5950 nM | 1980 nM | 1290 nM | 1180 nM | CCOc1ccc(CSc2nc(N3CCOCC3)c3ncn(C)c3n2)cc1 [Compound 99, 2-(4-ethoxybenzylsulfanyl)-9-methyl-6-morpholino-9H-purine]
13 | 740 nM | 1040 nM | 1400 nM | 3380 nM | 700 nM | CCOc1ccc(CSc2nc(N3C=COCC3)c3ncn(CC)c3n2)cc1N [Compound 156, 2-(3-amino-4-ethoxybenzylsulfanyl)-6-(2,3-dihydro-[1,4]oxadin-4-yl)-9-ethyl-9H-purine]
14 | 670 nM | 650 nM | 1340 nM | 920 nM | 580 nM | CCc1nc2c(N3CCOCC3)nc(SCc3ccc(OC)c(NC(C)=O)c3)nc2n1C [Compound 27, 2-(3-acetylamino-4-methoxybenzylsulfanyl)-8-ethyl-9-methyl-6-morpholino-9H-purine]
15 | 470 nM | 1400 nM | 1430 nM | 790 nM | 950 nM | COc1ccc(CSc2nc(-n3ccnc3)c3ncn(C)c3n2)cc1 [Compound 110, 6-(imidazol-1-yl)-2-(4-methoxybenzylsulfanyl)-9-methyl-9H-purine]
16 | 380 nM | 560 nM | 380 nM | 380 nM | 520 nM | CCN(C)c1nc(SCc2ccc(OC)cc2)nc2c1ncn2C [Compound 75, 6-(N-ethyl-N-methylamino)-2-(4-methoxybenzylsulfanyl)-9-methyl-9H-purine]
17 | 380 nM | 620 nM | 1430 nM | 1020 nM | 890 nM | CCc1nc2c(N3CCOCC3)nc(SCCCc3ccc(OC)cc3)nc2n1C [Compound 50, 8-ethyl-2-[3-(4-methoxyphenyl)propylsulfanyl]-9-methyl-6-morpholino-9H-purine]
18 | 350 nM | 690 nM | 1090 nM | 3140 nM | 950 nM | COc1ccc(CSc2nc(N3CCOCC3)c3ncn(C)c3n2)cc1N [Compound 18, 2-(3-amino-4-methoxybenzylsulfanyl)-9-methyl-6-morpholino-9H-purine]
19 | 330 nM | 890 nM | 840 nM | 460 nM | 520 nM | COc1ccc(CSc2nc(N(C)C(C)=O)c3ncn(C)c3n2)cc1 [Compound 61, 6-(N-acetyl-N-methylamino)-2-(4-methoxybenzylsulfanyl)-9-methyl-9H-purine]
20 | 280 nM | 1390 nM | 1550 nM | 820 nM | 670 nM | COc1ccc(CSc2nc(-c3ccc([N+](=O)[O-])cc3)c3ncn(C)c3n2)cc1 [Compound 166, 2-(4-methoxybenzylsulfanyl)-9-methyl-6-(4-nitrophenyl)-9H-purine]
21 | 260 nM | 980 nM | 510 nM | 1900 nM | 550 nM | CCN(C)c1nc(SCc2ccc(OC)c(N)c2)nc2c1ncn2C [Compound 84, 2-(3-amino-4-methoxybenzylsulfanyl)-6-(N-ethyl-N-methylamino)-9-methyl-9H-purine]
22 | 240 nM | 560 nM | 410 nM | 260 nM | 240 nM | COc1ccc(CSc2nc(N(C)OC)c3ncn(C)c3n2)cc1 [Compound 105, 6-(N-methoxy-N-methylamino)-2-(4-methoxybenzylsulfanyl)-9-methyl-9H-purine]
23 | 220 nM | 470 nM | 560 nM | 370 nM | 270 nM | C/C=C/c1nc(SCc2ccc(OC)c([N+](=O)[O-])c2)nc2c1ncn2C [Compound 171, 2-(4-methoxy-3-nitrobenzylsulfanyl)-9-methyl-6-(1-trans-propenyl)-9H-purine]
24 | 90 nM | 150 nM | 280 nM | 830 nM | 120 nM | CNc1nc(SCc2ccc(OC)c(N)c2)nc2c1ncn2C [Compound 45, 2-(3-amino-4-methoxybenzylsulfanyl)-9-methyl-6-methylamino-9H-purine]
25 | 40 nM | 90 nM | 80 nM | 80 nM | 60 nM | CCc1nc2c(N3C=COCC3)nc(SCc3ccc(OC)c(F)c3)nc2n1C [Compound 157, 6-(2,3-dihydro[1,4]oxadin-4-yl)-8-ethyl-2-(3-fluoro-4-methoxybenzylsulfanyl)-9-methyl-9H-purine]
